From PubChem BioAssay (NCI)
Values joined by “and” are separate entries in the source; they are usually repeats but may differ in a detail not shown here. Equal values may be shown once.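 Compound exposure: 48 hours, 5 concentrations, 96-well plates. At the GI50, growth is halved. TGI: concentration producing complete growth inhibition.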

Tests used:
Experiment in all cases: DTP human tumour cell line panel, 48 h
NCI-H460 lung = tested on: NCI-H460 lung
786-0 renal = tested on: 786-0 renal
T-47D breast = tested on: T-47D breast
DU-145 prostate = tested on: DU-145 prostate
NCI-H226 lung = tested on: NCI-H226 lung
HOP-62 NSCLC = tested on: HOP-62 NSCLC
HT29 colon = tested on: HT29 colon
OVCAR-5 ovarian = tested on: OVCAR-5 ovarian
LOX IMVI melanoma = tested on: LOX IMVI melanoma
A498 renal = tested on: A498 renal

SMILES | TGI (NCI-H460 lung) [µM] | TGI (786-0 renal) [µM] | TGI (T-47D breast) [µM] | TGI (DU-145 prostate) [µM] | TGI (NCI-H226 lung) | TGI (HOP-62 NSCLC) [µM] | TGI (HT29 colon) [µM] | TGI (OVCAR-5 ovarian) [µM] | TGI (LOX IMVI melanoma) [µM] | TGI (A498 renal) [µM] | GI50 (A498 renal) [µM] | GI50 (OVCAR-5 ovarian) [µM]
O=S(c1ccc(Cl)cc1)c1ccccc1C1=NCCN1 (configuration not stated) | > 100 | > 100 | > 100 | > 100 | > 100 µM | > 100 | > 100 | > 100 | – | – | – | –
CC(=O)OCCOCNC(=S)N/N=C(\C)c1cccs1 | > 100 | > 100 | – | – | > 100 µM | > 100 | > 100 | > 100 | > 100 | > 100 | – | –
COc1ccc(CCCN2c3ccccc3Sc3ccccc32)cc1 | > 100 | > 100 | – | – | > 100 µM | > 100 | > 100 | > 100 | > 100 | > 100 | – | –
CCOC1NC(/N=C/c2ccc(OC)cc2)=C(C#N)C1C#N (configuration not stated) | > 100 | > 100 | – | > 100 | > 100 µM | > 100 | > 100 | > 100 | > 100 | > 100 | – | –
COC1=CC(=O)c2nc3ccccc3c3ccnc1c23 | 8.33 | > 48.7 | > 100 | 14.4 | 33 µM | > 44.8 | 12.5 | 29.7 | 22.7 | – | – | –
Cc1c2oc3c(C)cc(F)c(C(=O)NC4C(=O)NC(C(C)C)C(=O)N5CCCC5C(=O)N(C)CC(=O)N(C)C(C(C)C)C(=O)OC4C)c3nc-2c(C(=O)NC2C(=O)NC(C(C)C)C(=O)N3CCCC3C(=O)N(C)CC(=O)N(C)C(C(C)C)C(=O)OC2C)c(N)c1=O (configuration not stated) | 13.5 | 78.5 | – | – | 0.625 µM and 0.346 µM | – | – | 10.2 | 0.159 | 0.902 | 0.85 | 0.0688
C=CCOCn1ccc(N)nc1=O | – | > 100 | > 100 | > 100 | > 100 µM | > 100 | > 100 | – | > 100 | – | – | –
O=S1(=O)OCCCOS(=O)(=O)C1(Br)Br | – | > 100 | > 100 | > 100 | > 100 µM | > 100 | > 100 | > 100 | > 100 | – | – | –
COc1cc2[nH]c(=O)c3cc(C)cc4c(Cl)nc(c1OC)c2c43 | > 100 | > 100 | – | > 100 | > 100 µM | 75.7 | > 100 | > 100 | > 100 | – | – | –
CCN(CC)c1ccc2cc(C(N)=O)c(=Nc3ccc(F)cc3)oc2c1 | > 100 | > 100 | > 100 | – | > 100 µM | > 100 | > 100 | > 100 | > 100 | > 100 | – | –
c1ccc2c(c1)Sc1ccccc1N2C1CN2CCC1CC2 (configuration not stated) | 33.4 | 25.9 | – | – | 18.9 µM | 25.9 | 53.9 | – | 26.8 | 22.5 | – | –
OCC1OC(c2ccccc2)CC1O (configuration not stated) | > 100 | > 100 | – | > 100 | > 100 µM | – | > 100 | > 100 | > 100 | > 100 | – | –
NCCS(=O)(=O)O | > 100 | > 100 | > 100 | > 100 | > 100 µM | > 100 | > 100 | > 100 | > 100 | – | – | –
CC(C)C1=C(Cc2ccccc2)C(=O)O/C1=C\c1ccc(O)c(Cl)c1 | 31.1 | 30.5 | – | 32.4 | 30.6 µM | 31.7 | 32.8 | 32.3 | 32.3 | 31.4 | – | –
S=C(N/N=C(\C(=N/NC(=S)N1CCCCC1)c1ccccn1)c1ccccn1)N1CCCCC1 | > 100 | > 100 | – | > 100 | > 100 µM | > 100 | > 100 | > 100 | > 100 | 90.1 | – | –
O=c1[nH]c(=O)n(COCc2ccccc2)c2ccccc12 | > 100 | > 100 | – | > 100 | > 100 µM | – | > 100 | > 100 | > 100 | > 100 | – | –
CC(=O)N1C(Nc2cccc3nc(C)ccc23)CCN1c1ccccc1 (configuration not stated) | > 10 | > 10 | > 10 | > 10 | > 10 µM | > 10 | > 10 | > 10 | > 10 | – | – | –
COc1ccc(C2=C(Cl)c3cc(OC)c(OC)cc3C2)cc1OC | – | > 100 | – | – | > 100 µM | > 100 | > 100 | – | – | > 100 | – | –

SMILES | TGI (NCI-H460 lung) [µM] | TGI (786-0 renal) [µM] | TGI (T-47D breast) [µM] | TGI (DU-145 prostate) [µM] | TGI (NCI-H226 lung) | TGI (HOP-62 NSCLC) [µM] | TGI (HT29 colon) [µM] | TGI (OVCAR-5 ovarian) [µM] | TGI (LOX IMVI melanoma) [µM] | TGI (A498 renal) [µM] | GI50 (A498 renal) [µM] | GI50 (OVCAR-5 ovarian) [µM]
O=NN1C(c2ccccc2)CCCC1c1ccccc1 (configuration not stated) | > 100 | – | – | – | > 100 µM | > 100 | > 54.8 | > 100 | > 100 | > 85.5 | – | –
CC1=NN(C(=O)Cc2ccccc2)C(=O)/C1=C\c1ccccc1O | > 100 | > 100 | – | – | > 100 µM | > 100 | > 100 | > 100 | > 100 | > 100 | – | –
CC1C(C#N)(C#N)C(C#N)=C(N)C1(C)[N+](=O)[O-] (configuration not stated) | > 100 | > 100 | – | > 100 | > 100 µM | > 100 | > 100 | > 100 | > 100 | > 100 | – | –
Cn1nc2ccc3nccc(NCCNCCO)c3c2n1 | 45.2 | > 100 | – | – | 85.8 µM | > 100 | 70 | > 100 | 43.1 | – | – | –
CC1CCOc2ccc(cc2)C=Nc2ccc(cc2)-c2ccc(cc2)N=Cc2ccc(cc2)OCC1 (configuration not stated) | > 100 | > 100 | – | > 100 | > 100 µM | – | > 100 | > 100 | > 100 | – | – | –
Cc1cn([C@@H]2C[C@H](CO)[C@@H]2O)c(=O)[nH]c1=O | > 100 | > 100 | – | > 100 | > 100 µM | > 100 | > 100 | > 100 | > 100 | > 100 | – | –
NC1=Nc2ccccc2Sc2nc3ccccc3n21 | > 100 | 5.23 | > 100 | > 100 | > 100 µM | > 100 | 31.3 | > 100 | > 100 | – | – | –
CC1=CC(=O)/C(=C/n2c(=S)[nH]c3cc(C)ccc32)C(=O)O1 | > 100 | > 100 | – | > 100 | > 100 µM | > 100 | > 100 | > 100 | > 100 | – | – | –
O=C1CC(C(COCc2ccccc2)OCc2ccccc2)CC(=O)N1 (configuration not stated) | – | > 100 | > 100 | > 100 | > 100 µM | > 100 | > 100 | > 100 | > 100 | – | – | –
C1=CN2C[n+]3ccc4ccccc4c3N=C2c2ccccc21 | 16.4 | 10.3 | 5.29 | 25.2 | – | 32.5 | 10.4 | 47 | – | – | – | –
O=C(Nc1ccc(Sc2ccc(N=Nc3c(O)c(S(=O)(=O)O)cc4cc(S(=O)(=O)O)ccc34)cc2)cc1)c1ccc(N=Nc2c(O)c(S(=O)(=O)O)cc3cc(S(=O)(=O)O)ccc23)cc1 | 27.7 | > 100 | – | – | > 100 µM | > 100 | > 100 | > 100 | 34.5 | > 100 | – | –
N#Cc1ccc2[nH]c3c(c2c1)CC(=O)Nc1ccccc1-3 | > 100 | > 100 | > 100 | – | > 100 µM | > 100 | > 100 | > 100 | > 100 | > 100 | – | –
O=C(NN1C(=O)C(Cl)C1c1ccccc1Cl)c1ccccc1O (configuration not stated) | > 100 | > 100 | – | – | > 100 µM | – | > 100 | – | > 100 | – | – | –
O=C(c1ccccc1O)c1cc(-c2ncc3c(=O)c4ccccc4oc3n2)c(-c2ccccc2O)[nH]c1=O | 60.9 | – | – | – | 32.7 µM | 52.6 | 77.6 | 62.8 | 39.1 | 57.1 | – | –
COc1cc2c(c(OC)c1OC)-c1ccc(SC)c(=O)cc1[C@@H](NCc1cccc([N+](=O)[O-])c1)CC2 | 12.4 | 34.4 | – | – | < 0.01 µM | – | < 0.01 | > 100 | 38.1 | – | – | –
C[N+](C)(C)CC(CC(=O)[O-])C1CC1 (configuration not stated) | > 100 | > 100 | – | – | – | > 100 | > 100 | > 100 | > 100 | > 100 | – | –
Cc1ccc(NC(=O)/C(=N/NC(=O)C[N+](C)(C)C)c2nc3ccccc3[nH]c2=O)cc1 | > 100 | > 100 | – | – | > 100 µM | > 100 | > 100 | > 100 | > 100 | > 100 | – | –
Cn1cnc(SC2=C3C(=O)C=C4S[C@H]5C[C@]42c2c(c(O)c4c6c2=[N+]3CCC=6C=N4)N5)c1CC(N)C(=O)O (some centres not stated) | > 100 | 59.7 | – | – | 36.5 µM | – | 17.1 | 28.5 | 26.1 | 36.5 | – | –
